# Experimental data reported in paper PMC9687241 (Biomolecules, 2022).
# Key:
# SARS-CoV-2 M^pro [1] = molecular target: T1, SARS-CoV-2 M^pro (Severe acute respiratory syndrome coronavirus 2, UniProt P0DTD1); format: biochemical; settings: 0.2 µM M^pro, 2 h incubation at r.t., 4 µM substrate, Hill equation fit; read-out: Inhibition constants, Ki
# SARS-CoV-2 M^pro [2] = molecular target: T1, SARS-CoV-2 M^pro; experiment: ESI MS of metallodrug-protein adduct formation; format: binding; settings: protein-to-metal ratio 1:3 (1:1 for Au(PEt3)Br), 37 °C, 4 h incubation (up to 24 h)
Structure (SMILES),Ki (SARS-CoV-2 M^pro [1]) [nM],protein metalation / adduct formation (ESI MS) (SARS-CoV-2 M^pro [2])
CC[P](CC)(CC)[Au][Br] [Au(PEt3)Br],440 ± 22,–
CCP(CC)CC.[Au+].[Cl-] [Au(PEt3)Cl],660 ± 26,–
CCCC[n+]1ccn(C)[c]1[Au-][Cl] [Au(NHC)Cl],870 ± 40,formation of a mono adduct
CC[P](CC)(CC)[Au][I] [Au(PEt3)I],2120 ± 96,–
